Experimental data reported in PubChem BioAssay (NCI).
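Results reflect a 48-hour exposure of cells in 96-well plates to compound at five concentrations. GI50: concentration for 50% inhibition of growth. TGI denotes the concentration required for complete inhibition of growth.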

What was measured:
Test in all cases: NCI tumour cell line growth inhibition, 48 h
A498 renal = system: A498 renal
ACHN renal = system: ACHN renal
NCI-H460 lung = system: NCI-H460 lung
SF-295 CNS = system: SF-295 CNS
SK-MEL-5 melanoma = system: SK-MEL-5 melanoma
SNB-75 CNS = system: SNB-75 CNS
UACC-62 melanoma = system: UACC-62 melanoma
LOX IMVI melanoma = system: LOX IMVI melanoma
MDA-MB-231 breast = system: MDA-MB-231 breast
PC-3 prostate = system: PC-3 prostate

Structure (SMILES) | TGI (A498 renal) [µM] | TGI (ACHN renal) [µM] | TGI (NCI-H460 lung) [µM] | TGI (SF-295 CNS) [µM] | TGI (SK-MEL-5 melanoma) [µM] | TGI (SNB-75 CNS) [µM] | TGI (UACC-62 melanoma) [µM] | GI50 (A498 renal) [µM] | GI50 (LOX IMVI melanoma) [µM] | TGI (LOX IMVI melanoma) [µM] | GI50 (MDA-MB-231 breast) [µM] | TGI (MDA-MB-231 breast) [µM] | GI50 (NCI-H460 lung) [µM] | GI50 (PC-3 prostate) [µM] | TGI (PC-3 prostate) [µM] | GI50 (SF-295 CNS) [µM] | GI50 (SK-MEL-5 melanoma) [µM] | GI50 (SNB-75 CNS) [µM] | GI50 (UACC-62 melanoma) [µM] | GI50 (ACHN renal) [µM]
CC1=C(c2cc(C(=O)Nc3nccs3)nc(NC#N)n2)Sc2ccccc2N1 | > 100 | > 100 | > 100 | > 100 | > 100 | > 100 | > 100 |  |  |  |  |  |  |  |  |  |  |  |  | 
O=C(CCl)Nc1ccc2c(c1)C(=O)c1ccc(NC(=O)CCl)cc1C2=O | 27.6 |  | 1.53 | 3.29 | 0.502 | 2.22 | 0.99 | 3.49 | 0.0935 | 0.229 | 0.486 | 2.36 | 0.387 | 0.876 | 2.5 | 1.44 | 0.214 | 1.01 | 0.299 | 
COc1ccc(/C(C)=N/NC(N)=S)c(OC)c1 | > 100 | > 100 | > 100 | > 100 | > 100 | > 100 | > 100 |  |  | > 100 |  |  |  |  |  |  |  |  |  | 
CC1CCC23COC(=O)C2C(O)CCC3C1(C)CC(O)c1ccoc1 (stereo not drawn) | > 100 | > 100 | > 100 | > 100 | > 100 | > 100 | > 100 |  |  | > 100 |  |  |  |  |  |  |  |  |  | 
CC1=CC2C(C(C)C)CC1C1C(=O)OC(=O)C21 (stereo not drawn) | > 100 | > 100 | > 100 |  | > 100 | > 100 | > 100 |  |  | > 100 |  | > 100 |  |  | > 100 |  |  |  |  | 
N#CC1=C(c2ccccc2)C(O)(c2ccccc2)NC1=O (stereo not drawn) | 60.6 | > 100 | > 100 | > 100 | > 100 | > 100 | > 100 |  |  | > 100 |  |  |  |  |  |  |  |  |  | 
O=c1/c(=C/c2ccc3c(c2)OCO3)sc2nnc(-c3ccco3)n12 | > 100 | > 100 | > 100 | > 100 | > 100 | 71.2 | > 100 |  |  | > 100 |  |  |  |  |  |  |  |  |  | 
COc1cc(-c2cc(CCC(=O)Nc3ccccc3[N+](=O)[O-])n(-c3ccc([N+](=O)[O-])cc3[N+](=O)[O-])n2)ccc1O | > 100 | > 100 | > 100 | > 10 | > 100 | > 100 | > 100 | > 100 | > 100 | > 100 |  |  | > 100 |  |  |  | > 100 | > 10 | > 10 | > 10
COC(=O)NN1C(C)=C(C(=O)OC)C2(CCOC2=O)C1(C)O (stereo not drawn) | > 100 | > 100 | > 100 | > 100 |  |  | > 100 |  |  | > 100 |  |  |  |  |  |  |  |  |  | 
CN(C)/C=N/c1nc2ncn(CCOC(=O)c3ccccc3)c2c(=O)[nH]1 | > 100 | > 100 | > 100 | > 100 | > 100 | > 100 | > 100 |  |  | > 100 |  |  |  |  |  |  |  |  |  | 
CCSc1nc2n(c(=S)n1)CCN2C | 47.5 | 60.6 | 39.7 | 41.2 | 30 | 30.8 | 25.8 |  |  | 34.8 |  |  |  |  |  |  |  |  |  | 
